One series has as its target guanase. Conditions: in tissue cultures; cited from earlier work.
Series [1] can be described thus: Chemical stability in aqueous medium. Format: physicochemical.
Series [2] deals with T1, guanase from rabbit liver (Oryctolagus cuniculus, UniProt G1T386).
T1 sequence (G1T386 1-454): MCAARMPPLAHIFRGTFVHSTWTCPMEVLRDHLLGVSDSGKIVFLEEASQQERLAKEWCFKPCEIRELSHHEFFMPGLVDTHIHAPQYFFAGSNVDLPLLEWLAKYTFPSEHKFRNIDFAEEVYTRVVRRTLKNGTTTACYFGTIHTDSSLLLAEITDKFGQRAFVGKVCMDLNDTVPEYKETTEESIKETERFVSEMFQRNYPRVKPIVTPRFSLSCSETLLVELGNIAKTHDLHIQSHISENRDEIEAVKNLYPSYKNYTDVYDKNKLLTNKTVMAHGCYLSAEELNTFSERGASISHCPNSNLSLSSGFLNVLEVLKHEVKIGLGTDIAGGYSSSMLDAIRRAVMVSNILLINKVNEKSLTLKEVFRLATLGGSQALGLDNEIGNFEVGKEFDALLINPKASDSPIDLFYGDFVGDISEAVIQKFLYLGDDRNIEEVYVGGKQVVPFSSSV
The series is classed as biochemical.

SMILES strings stand for the structures. Entries after “also recorded” stand apart in the source; their conditions may differ.

Turning to `O=C1NC(O)CNc2nc[nH]c21` (centres unmarked) [Azepinomycin], the IC50 at guanase was about 5 µM.

For `O=C1NCC(O)Nc2c1ncn2Cc1ccccc1` (centres unmarked) [Compound 1, 3-Benzyl-5-hydroxy-4,5,6,7-tetrahydroimidazo[4,5-e] [1,4]diazepin-8(3H)-one], the “Stability in aqueous acidic environment” value in series [1] (aqueous acidic environment (1N HCl)) is “reasonably stable”. The “Stability under neutral conditions” value in series [1] (neutral aqueous medium) is “quite unstable and decomposed; also recorded: decomposes in neutral aqueous medium over time”.

In turn, `COC1CNC(=O)c2nc[nH]c2N1Cc1ccccc1` (centres unmarked) [Compound 9, 4-Benzyl-5-methoxy-4,5,6,7-tetrahydroimidazo[4,5-e][1,4]diazepin-8(3H)-one] returned a Ki in series [2] (Ki) of about 8 µM.

In the case of `Nc1nc2nc[nH]c2c(=O)[nH]1` [guanine, reference compound], the Km in series [2] (read-out: KM of enzyme with guanine as substrate, 25 °C, pH 7.4) was 5.5 µM.

For orientation: IC50 means the concentration that gives 50% inhibition. A word on the Ki: it is the equilibrium dissociation constant of an inhibitor or competing ligand from its target. A low value points to higher affinity. In general, Km refers to the concentration of substrate that gives half-maximal velocity.

The values are drawn from publication PMC3761942 (Bioorganic & medicinal chemistry, 2013).
